Data on 26 compounds can be found in ChEMBL document CHEMBL4483862, “Open-source discovery of chemical leads for next-generation chemoprotective antimalarials” (2018).

In the assay the test system is Plasmodium berghei. As to the kind of experiment: Luciferase/luciferin-expressing antifolate-resistant parasites were used to infect a culture of HepG2 cells that were pre-incubated with compounds. Infected hepatocytes emit light due to the luciferase reaction. Assay results are presented as the percent inhibition of light emission compared to control. […]. Format: functional. Particulars: sporozoite; for IC90: read-out: LUCIFERASE INFECTION ASSAY - IC90.

Setting [1] is: read-out: LUCIFERASE INFECTION ASSAY - IC50.

Each structure is given as a SMILES string. Some results are limits rather than exact numbers.

As usually defined, the IC50 is the point on the concentration scale where inhibition reaches its midpoint. The term IC90 denotes the concentration at which the effect reaches the 90% level. For the compound `COc1ccc2cc(/C(C)=N/OC(=O)Nc3ccccc3)ccc2c1`, the IC90 was over 9.87 µM. Besides, under “HEPG2TOX_HILL_SLOPE 1.11, HEPG2TOX_R_SQUARED 0.992, read-out: LUCIFERASE INFECTION ASSAY - IC50”, the IC50 is over 9.87 µM.
Take `CN(C)C(=O)c1ccc(Nc2cc3c(cn2)nc(-c2ccco2)n3C)cc1`: the IC90 is over 10 µM. Further, the IC50 under setting [1] was over 10 µM.
For the compound `COc1ccc(CNc2nc3cnc(Nc4cccc(Cl)c4)cc3n2C)cc1OC`, the IC90 was found to be 3.92 µM. The IC50 (HEPG2TOX_HILL_SLOPE 1.65, HEPG2TOX_R_SQUARED 0.962, PBLUC_HILL_SLOPE 14.9, PBLUC_R_SQUARED 0.209, read-out: LUCIFERASE INFECTION ASSAY - IC50) is 3.38 µM.
Take `O=S(=O)(Nc1ccc(Cl)cc1)c1cc(NC(=S)Nc2ccc(Oc3ccccc3)cc2)ccc1N1CCCCC1`: the IC90 was over 10 µM. For the same compound, the IC50 (FFLUC_HILL_SLOPE 10.3, FFLUC_R_SQUARED 0.0303, PBLUC_HILL_SLOPE 13.4, PBLUC_R_SQUARED 0.215, read-out: LUCIFERASE INFECTION ASSAY - IC50) was over 10 µM.
On to `O=C(Nc1ccc(-c2csc(N3CCOCC3)n2)cc1)c1cccc(F)c1`, for which the IC90 is over 10 µM. For the same compound, under setting [1], the IC50 is over 10 µM.
Consider `CCC(C)N1C(=O)Cc2c1nc(N)c1c(N)nc(N3CC(C)OC(C)C3)c(C#N)c21` (configuration not stated), for which the IC90 is over 10 µM. Besides, the IC50 under setting [1] is over 10 µM.
`CC(=O)c1ccc(N2CCN(c3nc4ccccc4s3)CC2)cc1`: the IC90 is over 10 µM. Moreover, the IC50 under setting [1] was found to be 3.62 µM.
Consider `O=C(Nc1cccc(C(F)(F)F)c1)c1cccc(Cn2cc(C(F)(F)F)ccc2=O)c1`, for which the IC90 is over 7.49 µM. The IC50 (PBLUC_HILL_SLOPE 12.4, PBLUC_R_SQUARED 0.188, read-out: LUCIFERASE INFECTION ASSAY - IC50) stood at 6.37 µM.
`Cc1cc(O)c(/C=N/Nc2ncc(C(F)(F)F)cc2Cl)c(=O)o1`: the IC90 was over 9.49 µM. Where the note is “HEPG2TOX_HILL_SLOPE 2.38, HEPG2TOX_R_SQUARED 0.982, PBLUC_HILL_SLOPE 7.99, PBLUC_R_SQUARED 0.344, read-out: LUCIFERASE INFECTION ASSAY - IC50”, the IC50 is 7.73 µM.
With `C=CCn1c(-c2ccoc2C)nn(CN(C)Cc2nc3ccccc3s2)c1=S`, the IC90 was over 10 µM. Besides, under setting [1], the IC50 is over 10 µM.
As to `CCc1ccc(CN(Cc2cccnc2)C(=O)c2ccc3ccccc3n2)cc1`, the IC90 came to 4.26 µM. For the same compound, the IC50 (PBLUC_HILL_SLOPE 15.3, PBLUC_R_SQUARED 0.276, read-out: LUCIFERASE INFECTION ASSAY - IC50) is 3.69 µM.
For `CC(C)Oc1cccc(-c2cn3c(-c4ccccc4Cl)cnc3cn2)c1`, the IC90 is over 9.07 µM. Under setting [1], the IC50 is over 9.07 µM.
With `CN(C)C(=O)c1ccc(-c2ccnc3n[nH]c(-c4cccc(Cl)c4)c23)cc1`, the IC90 was over 10 µM. For the same compound, the IC50 under setting [1] came to 4.64 µM.
`Nc1c(C(=O)N2CCOCC2)sc2nc3c(cc12)CCCCC3`: the IC90 turned out to be 0.424 µM. The IC50 (FFLUC_HILL_SLOPE 2.88, FFLUC_R_SQUARED 0.736, PBLUC_HILL_SLOPE 1.46, PBLUC_R_SQUARED 0.898, read-out: LUCIFERASE INFECTION ASSAY - IC50) was determined as 0.0939 µM.
Turning to `Cc1cc(=O)oc2cc(OCc3ccc(C(=O)Nc4nc5ccccc5[nH]4)cc3)ccc12`, the IC90 was over 10 µM. Moreover, the IC50 (PBLUC_HILL_SLOPE 0.6, PBLUC_R_SQUARED 0.47, read-out: LUCIFERASE INFECTION ASSAY - IC50) is 3.19 µM.
On to `COc1ccc(C(=O)Nc2nc3ccc(C)cn3c2C(=O)NC2CCCC2)cc1`, for which the IC90 turned out to be 8.02 µM. Further, the IC50 (FFLUC_HILL_SLOPE 1.65, FFLUC_R_SQUARED 0.455, HEPG2TOX_HILL_SLOPE 5.25, HEPG2TOX_R_SQUARED 0.908, PBLUC_HILL_SLOPE 10.6, PBLUC_R_SQUARED 0.223, read-out: LUCIFERASE INFECTION ASSAY - IC50) came out at 6.52 µM.
As for `COc1ccc2[nH]c3c(NCCC4=CCCCC4)ncnc3c2c1`, the IC90 was 5.19 µM. Moreover, the IC50 (HEPG2TOX_HILL_SLOPE 2.01, HEPG2TOX_R_SQUARED 0.344, PBLUC_HILL_SLOPE 1.69, PBLUC_R_SQUARED 0.738, read-out: LUCIFERASE INFECTION ASSAY - IC50) is 1.42 µM.
As for `CCOC(=O)c1sc(N)c(C#N)c1COC(=O)C1CCN(S(=O)(=O)c2ccc(C)c(C)c2)CC1`, the IC90 is over 10 µM. Further, the IC50 under setting [1] is over 10 µM.
With `Cn1ccnc1CN(C(=O)c1cnn(-c2ccccc2)c1)C1CC1`, the IC90 is over 10 µM. Also, the IC50 under setting [1] is over 10 µM.
Regarding `S=C(NCc1ccccc1Cl)NC12CC3CC(CC(C3)C1)C2`, the IC90 was over 9.85 µM. In addition, for the setting “HEPG2TOX_HILL_SLOPE 5.09, HEPG2TOX_R_SQUARED 0.92, PBLUC_HILL_SLOPE 1.78, PBLUC_R_SQUARED 0.451, read-out: LUCIFERASE INFECTION ASSAY - IC50”, the IC50 came out at 7.44 µM.
Turning to `CC(C)c1ccc(/C=C/C(=O)NN=c2nc[nH]c3ccccc23)cc1`, the IC90 is over 10 µM. The IC50 (HEPG2TOX_HILL_SLOPE 2.75, HEPG2TOX_R_SQUARED 0.845, PBLUC_HILL_SLOPE 8.02, PBLUC_R_SQUARED 0.305, read-out: LUCIFERASE INFECTION ASSAY - IC50) was 8.64 µM.
As for `COc1cccc(CC(=O)N2C[C@H](OC)C[C@H]2C(=O)NCC2CCCCC2)c1`, the IC90 was over 8.49 µM. Under setting [1], the IC50 was over 8.49 µM.
Take `Nc1nc(SCC(=O)NC2CCCc3ccccc32)nc2sccc12` (configuration not stated): the IC90 is over 10 µM. Moreover, the IC50 (PBLUC_HILL_SLOPE 8.94, PBLUC_R_SQUARED 0.274, read-out: LUCIFERASE INFECTION ASSAY - IC50) was 9.02 µM.
Turning to `N#CC(C(=O)c1cc(S(=O)(=O)N2CCc3ccccc3C2)ccc1Cl)c1ccccn1` (configuration not stated), the IC90 came out at 3.76 µM. In addition, the IC50 (PBLUC_HILL_SLOPE 17.6, PBLUC_R_SQUARED 0.387, read-out: LUCIFERASE INFECTION ASSAY - IC50) stood at 3.32 µM.
Take `COc1ccc(S(=O)(=O)N(C)CC2COc3ccccc3O2)cc1` (configuration not stated): the IC90 was over 10 µM. Under setting [1], the IC50 was over 10 µM.
For the compound `Cc1ccc(Cn2ccs/c2=N/C(=O)COC(=O)CCN2C(=O)C3CC=CCC3C2=O)cc1` (configuration not stated), the IC90 was over 10 µM. The IC50 under setting [1] is over 10 µM.
